From patent US12343326B2, “Psychoactive medicines and their use for treating psychiatric and neurological conditions and disorders” (Transcend Therapeutics, Inc., priority 2021, dated 2025)
“Also recorded” adds a separate entry of the source. Read-outs that look alike come from different tables or passages of the source.

Columns and labels:
mice = experiment: Mouse fear extinction paradigm (PTSD model); assay type: in vivo; settings: MBDB 5 mg/kg IP; day 2
Description: Effective PTSD treatments facilitate the disassociation between a traumatic memory and the patient's fear response, making cues for the traumatic memory evoke less of a fear response. This is modeled in the mouse fear extinction paradigm (see FIG. 9A) which takes place over 3 days. On day 1 (fear conditioning), mice are trained to acquire a “traumatic memory,” namely associating the conditioned stimulus (CS, tone) to the unconditioned stimulus (US, foot shock). On day 2 (extinction training), they are trained to forget the traumatic memory association by presenting the CS 6 times (with no US) in a novel environment. On day 3 (extinction recall), the mice are “asked” if that tone (CS) still elicits a fearful response, as measured by the time spent freezing when the tone is presented. Less time freezing means better extinction recall. Drugs that improve extinction recall reduce freezing time on day 3, and, therefore, show potential as a PTSD treatment.

[1] = system: serotonergic terminals in the cortex and hippocampus; settings: 25 mg/kg IP every 12 hours for 4 days; 2 weeks post-treatment; cited from earlier work
Male Sprague Dawley rats = experiment: Forced Swim Test (FST); assay type: in vivo, rat
Description: The Forced Swim Test (FST) is a classic, and the most used preclinical behavioral assay to screen compounds with antidepressant-like activity and has high predictive and face validity (Porsolt et al. (1977) Nature 266:730; Borsini and Meli (1988) Psychopharmacology 94:147). The premise of the FST is that when rats are placed into a cylinder filled with water, they will initially try to escape, but over time will become immobile. This increased immobility reflects behavioral despair, modeling a depressive-like state.
Forced Swim Test (FST): In the FST trial, rats were placed in a circular plexiglass container filled with water, with no means of escape. Water temperature was maintained at 22-25° C. and changed for every animal. After an acclimation period, rats were timed for inactivity (failure to struggle), activity, swim time and climbing time. Day 1 consisted of a 15 min acclimation trial, and Day 2 (24 h later) consisted of the 5 min test. A time sampling procedure was employed where animals were observed every 5 sec and scored for immobility, swimming, or climbing. Fluoxetine (10 mg/kg, IP, Sigma Aldrich) or 0.9% sterile saline vehicle (vehicle 3× group) were administered 23.5, 5, and 1 h before testing in the FST. […] The experimenter was blinded to treatment.
Forced Swim Test: In the FST trial, rats were placed in a circular plexiglass container filled with water, with no means of escape. Water temperature was maintained at 22-25° C. and changed for every animal. After an acclimation period, rats were timed for inactivity (failure to struggle), activity, swim time and climbing time. Day 1 consisted of a 15 min acclimation trial, and Day 2 (24 h later) consisted of the 5 min test. A time sampling procedure was employed where animals were observed every 5 sec and scored for immobility, swimming, or climbing. Fluoxetine (10 mg/kg, IP, Sigma Aldrich) or 0.9% sterile saline vehicle (vehicle 3× group) were administered 23.5, 5, and 1 h before testing in the FST. 2C-B (2.5, 10, or 20 mg/kg, IP, Cayman Chemical) or 0.9% saline vehicle (vehicle 1× group) were administered 30 min prior to FST testing. The experimenter was blinded to treatment.
Drug Treatment: Fluoxetine (10 mg/kg, IP, Sigma Aldrich) or 0.9% sterile saline vehicle were administered 23.5, 5, and 1 h before testing in the FST. […] Control animals received fluoxetine alone, methylone alone, or saline vehicle.
Forced Swim Test: In the FST trial, rats were placed in a circular plexiglass container filled with water, with no means of escape. Water temperature was maintained at 22-25° C. and changed for every animal. After an acclimation period, rats were timed for inactivity (failure to struggle), activity, swim time and climbing time. The experimenter and scorer were blind to treatment group. Day 1 consisted of a 15 min acclimation trial, and Day 2 (24 h later) consisted of the 5 min test. A time sampling procedure was employed where animals were observed every 5 sec and scored for immobility, swimming, or climbing.
Control animals received saline vehicle. The dosing schedule and experimental design are found in FIG. 12A.
The FST was performed and scored by an experimenter blind to treatment group according to standard protocols and based on a “modified FST” procedure (Slattery and Cryan (2012) Nat Protoc, 7:1009). Briefly, rats were placed in a circular plexiglass container (29.2 cm diameter, 49.5 cm height) filled with water to a depth of 30 cm so rats could not support themselves by touching the bottom of the tank. Water was maintained at 22-25° C. and was changed for every animal. Day 1 (Training) consisted of a 15 min acclimation trial, and Day 2 (Testing, 24 h later) consisted of the 5 min test. […]

experienced drug users = settings: cited from earlier work
Male C57Bl/6 mice = experiment: Cisplatin chemotherapy-induced peripheral neuropathy (CIPN) model, von Frey test; assay type: in vivo, mouse
Protocol: Cisplatin, a platinum-based chemotherapy agent has been used to reduce pain thresholds in a model of CIPN. Effects of acute (single higher dose) or sub-chronic (7 days repeated lower dose) 2C-B on pain thresholds were investigated in cisplatin-treated animals compared with vehicle or cisplatin-treated controls.
Methods: Male C57Bl/6 mice aged 12-16 weeks were used. Cisplatin (2.5 mg/kg) or vehicle was administered on days 1-5 and 11-15.
Vehicle, sub-chronic 2C-B (5 mg/kg once daily days 17-23) or acute 2C-B (20 mg/kg once on day 17) was then administered IP (N=16-18/group). VonFrey testing took place on day 17 (30 min post-dose) and days 21 and 24 (pre-dose) to monitor the effects of 2C-B in cisplatin treated animals, compared with animals receiving cisplatin+vehicle or vehicle+vehicle.
For von Frey measurements, animals were placed into wire bottom cubicles with opaque Plexiglas walls, allowing access to the underside of their paws. Animals were habituated to this environment for at least 30 minutes before the start of the von Frey filament application. Static allodynia was measured using Semmes-Weinstein von Frey filaments (Stoelting, Wood Dale, IL). Mechanical allodynia was tested by touching the plantar surface of the animals' right and left hind paws with von Frey filaments which deliver a calibrated amount of force (0.07, 0.16, 0.4, 0.6. 1.0, 2.0, 4.0, 6.0 g). […]

[2] = system: rats with reserpine-induced pain sensitivity; experiment: Reserpine-induced fibromyalgia model, von Frey test; assay type: in vivo, rat; settings: 2C-B 10 and 20 mg/kg; duloxetine positive control; 60-min post-injection
Protocol: Reserpine (1 mg/kg/s.c.) is administered for 3 days to mimic chronic widespread pain and complex symptoms.
In this Example, male Sprague Dawley rats are tested in a behavioral model of FMA based on the protocol from Nakagura et al. (2009) Pain 146:26. This model uses three daily doses of reserpine (1 mg/kg, SC) or 0.5% acetic acid vehicle to reduce pain thresholds (i.e., increase pain perception) in the Von Frey Test (vFT, procedure outlined below).
Von Frey Test (vFT) procedure: Increasing pain thresholds in this test are consistent with a reduction in pain perception. Prior to the start of dosing, rats are tested for their baseline mechanical pain threshold. For von Frey measurements, animals are placed into wire bottom cubicles with opaque Plexiglas walls, allowing access to the underside of their paws. Animals are habituated to this environment for at least 30 minutes before the start of the von Frey filament application. Static allodynia is measured using Semmes-Weinstein von Frey filaments (Stoelting, Wood Dale, IL). Mechanical allodynia is tested by touching the plantar surface of the animals' left and right hind paws with von Frey filaments which deliver a calibrated amount of force. Each von Frey filament is presented perpendicularly to the plantar surface for approximately 6 seconds of constant application in either ascending or descending strength in a modified up-and-down method (Chaplan et al. (1994) J Neurosci. Meth. 53:55). Stimulation is presented at intervals of several seconds, allowing for apparent resolution of any behavioral responses to previous stimuli. A positive response is noted if the paw is sharply withdrawn. Flinching immediately upon removal of the hair is also considered a positive response. […]
VonFrey measurements: Animals were placed into wire bottom cubicles with opaque Plexiglas walls, allowing access to the underside of their paws. […] Static allodynia was measured using Semmes-Weinstein von Frey filaments (Stoelting, Wood Dale, IL). […] The average hindpaw thresholds were determined 60-min post-injection. […]

[3] = system: rats (Sprague Dawley; Flinders Sensitive Line); settings: cited from earlier work

CCC(Cc1ccc2c(c1)OCO2)NC (racemic) [MBDB, N-methyl-1-(1,3-benzodioxol-5-yl)-2-aminobutane]
extinction acquisition (freezing, first trial of extinction training) (mice): improved extinction acquisition; also recorded: significantly reduced
locomotor activity (mice): small, but significant increase in locomotor activity
serotonergic terminals in the cortex and hippocampus destroyed [1]: 55-60%
immobility (FST) (Male Sprague Dawley rats; MBDB 5-30 mg/kg IP, 30 min before testing): significantly reduced immobility
serious adverse effects (experienced drug users; self-administered under supervision, dose 100 to 300 mg): no serious adverse effects

COc1cc(CCN)c(OC)cc1Br [2C-B, 4-Bromo-2,5-dimethoxyphenethylamine]
climbing (FST) (Male Sprague Dawley rats; 2C-B high-dose group only): significantly decreased
swimming (FST) (Male Sprague Dawley rats; single dose of 2C-B 30 minutes before testing): significant increase in swimming
effect of repeated doses in CIPN model (Male C57Bl/6 mice; repeated doses of 5 mg/kg, once daily days 17-23): sustained beneficial effect
pain thresholds (von Frey) in cisplatin-treated animals (Male C57Bl/6 mice; within 30 min of a single dose, 5 or 20 mg/kg IP, day 17): significantly increased
serious adverse effects (experienced drug users; self-administered, dose 10 to 20 mg): no serious adverse effects
animals with complete (maximal) reversal of reserpine-induced pain sensitivity [2]: 100%

CCN(CC)C(=O)[C@@H]1C=C2c3cccc4[nH]cc(c34)C[C@H]2N(C)C1 [LSD, lysergic acid-N,N-diethylamide]
reduction in immobility (FST) ([3]; Hibicke et al. (2020)): 38%

CNCC[C@H](Oc1cccc2ccccc12)c1cccs1 [duloxetine, reference compound]
animals with complete (maximal) reversal of reserpine-induced pain sensitivity [2]: 44%

CNCCC(Oc1ccc(C(F)(F)F)cc1)c1ccccc1 (stereo not drawn) [fluoxetine, reference compound]
swimming behavior (FST) (Male Sprague Dawley rats; Example 8): significantly increased swimming behavior

CNC1(c2ccccc2Cl)CCCCC1=O (stereo not drawn) [ketamine]
reduction in immobility (FST) ([3]; Hibicke et al. (2020)): 30%
reduction in immobility (FST) ([3]; Tizabi et al. (2012)): 60%
reduction in immobility (FST) ([3]; Yang et al. (2013)): 25-55%

CN(C)CCc1c[nH]c2cccc(OP(=O)(O)O)c12 [psilocybin]
reduction in immobility (FST) ([3]; Hibicke et al. (2020)): 67%
